US20220000117A1, “METHOD FOR CONTROLLING DISEASES IN SMALL GRAIN CEREALS, SEED OF SMALL GRAIN CEREALS, AND METHOD FOR SUPPRESSING LODGING DAMAGE IN SMALL GRAIN CEREALS” (KUMIAI CHEMICAL INDUSTRY CO., LTD., priority 2019, published 2022)

Key:
septoria leaf blotch [1] = experiment: Test Example 10: control test of septoria leaf blotch of wheat, cup in greenhouse, inoculated, variety ARKEOS (Tables 15 to 19); type: in vivo, Septoria tritici
Procedure, shortened: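 ARKEOS wheat seed treated with compound suspension per 1 kg seed, air-dried, sown 5 per cup in greenhouse; comparative treatments sprayed on seedlings at 1000 L/ha on day 14. Conidiospores sprayed day 14; second-leaf lesion area scored ~35 days after seeding, expressed as degree of disease occurrence.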

powdery mildew [2] = experiment: Test Example 9: control test of wheat powdery mildew, cup in greenhouse, inoculated, Norin No. 61 (Tables 10 to 14); type: in vivo, Blumeria graminis; parameters: key to Degree of Disease Occurrence: Σ(index×leaves)/(4×leaves investigated)×100; 0 = no disease, 100 = max
Procedure, shortened: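 Norin No. 61 wheat seed was treated with compound suspension (DMSO solution or 10% wettable powder), air-dried and grown in river sand in a greenhouse; comparators were sprayed at 1000 L/ha on day 14. Conidia were dusted on at day 14, and first-leaf lesion area was scored at day 21 as degree of disease occurrence.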

septoria leaf blotch [3] = experiment: Test Example 8: control test of septoria leaf blotch of wheat, cup in greenhouse, inoculated, wheat variety Apache; type: in vivo, Septoria tritici; parameters: key to Degree of Disease Occurrence: Σ(index×leaves of index)/(4×investigated leaves)×100; 0–100 scale; conditions: for Degree of Disease Occurrence: 31 days after seeding
Procedure: (§1) Degree of Disease Occurrence=Σ(Index×Number of Leaves of Index)/(4×Number of Investigated Leaves)×100 (1)
(§2) Seed having a mass of 1 kg of wheat (variety: Apache) was mixed into 100 ml of suspension water containing from 0.5 g or 5 g of the 3,4-dichloroisothiazole derivative of the compound (6) or (3) (synthesis was performed in accordance with a known method, formulated 10% wettable powder was used) and air-dried, and then, 12 seeds were sown in a plastic cup having a diameter of 6 cm containing river sand and managed in a greenhouse. The number of emerged seeds was investigated 12 days after seeding, and an emergence rate was calculated. In Comparative Examples 19 to 22, 20 ml of suspension water of an active ingredient, which had been adjusted to have a concentration shown in Table 9, was sprayed in a frame of 45 cm×45 cm in which a pot of wheat seedlings was placed (corresponding to 1000 L/ha) 12 days after seeding. A spore suspension in which conidiospores of septoria leaf blotch are suspended were sprayed and inoculated on leaves of wheat seedlings 12 days after seeding (after the sprayed liquid was dried in the case of Comparative Examples), a lesion area ratio of septoria leaf blotch in a second leaf was investigated 31 days after seeding according to the criteria in Table 1, and the degree of disease occurrence was calculated by the above calculation formula (1).

wheat (variety: Apache) = experiment: Test Example 8: emergence rate of wheat seed; type: in vivo
Procedure: as §2

powdery mildew [4] = experiment: Test Example 4: control test of wheat powdery mildew, cup in greenhouse, inoculated; type: in vivo, Blumeria graminis; conditions: for Degree of Disease Occurrence: 22 days after seeding
Procedure: as §1
Seed having a mass of 1 kg of wheat (variety: Norin No. 61) was mixed into 100 ml of suspension water containing 0.5 g of the above compound (6) or compound (3) (synthesis was performed in accordance with a known method, formulated 10% wettable powder was used) and air-dried, and then, 12 seeds were sown in a plastic cup having a diameter of 6 cm containing river sand and managed in a greenhouse. The number of emerged seeds was investigated nine days after seeding, and an emergence rate was calculated (Examples 10 and 11). In Comparative Example 11 and Comparative Example 12, 20 ml of suspension water of an active ingredient, which had been adjusted to have a concentration shown in Table 5, was sprayed in a frame of 45 cm×45 cm in which a pot of wheat seedlings was placed (corresponding to 1000 L/ha) 15 days after seeding. On day 15 after seeding, conidiospores of powdery mildew were sifted over leaves of wheat seedlings and inoculated onto the leaves (after the sprayed liquid was dried in the case of Comparative Examples), a lesion area ratio of powdery mildew in a first leaf was investigated 22 days after seeding according to the criteria in Table 1, and the degree of disease occurrence was calculated by the above calculation formula (1).

[5] = Table 15, Foliage Treatment, spray 50 ppm (50 g/ha) day 14, second leaf, approximately 35 days after seeding
[6] = Table 15, Foliage Treatment, spray 500 ppm (500 g/ha) day 14, second leaf, approximately 35 days after seeding
[7] = Table 15, Seed Treatment 0.5 g/Seed 1 kg (50 g/ha), second leaf, approximately 35 days after seeding
[8] = Table 15, Seed Treatment 5 g/Seed 1 kg (500 g/ha), second leaf, approximately 35 days after seeding
[9] = Table 16, Foliage Treatment, spray 10 ppm suspension water (corresponding to 10 g/ha) 14 days after seeding, untreated 57.1
[10] = Table 16, Foliage Treatment, spray 10 ppm suspension water (corresponding to 10 g/ha) 14 days after seeding, untreated 93.3
[11] = Table 16, Foliage Treatment, spray 500 ppm suspension water (corresponding to 500 g/ha) 14 days after seeding, untreated 57.1
[12] = Table 16, Foliage Treatment, spray 500 ppm suspension water (corresponding to 500 g/ha) 14 days after seeding, untreated 93.3
[13] = Table 16, Seed Treatment, 0.1 g/Seed 1 kg (corresponding to 10 g/ha), untreated 57.1
[14] = Table 16, Seed Treatment, 0.1 g/Seed 1 kg (corresponding to 10 g/ha), untreated 93.3
[15] = Table 16, Seed Treatment, 5 g/Seed 1 kg (corresponding to 500 g/ha), untreated 57.1
[16] = Table 16, Seed Treatment, 5 g/Seed 1 kg (corresponding to 500 g/ha), untreated 93.3
[17] = Table 10 run, Foliage Treatment, spray 5 ppm (5 g/ha) day 14, first leaf, 21 days after seeding
[18] = Table 10 run, Foliage Treatment, spray 50 ppm (50 g/ha) day 14, first leaf, 21 days after seeding
[19] = Table 10 run, Seed Treatment 0.05 g/Seed 1 kg (5 g/ha), first leaf, 21 days after seeding
[20] = Table 10 run, Seed Treatment 0.5 g/Seed 1 kg (50 g/ha), first leaf, 21 days after seeding
[21] = Foliage Treatment, spray 50 ppm suspension water (50 g/ha) day 12, second leaf
[22] = Foliage Treatment, spray 500 ppm suspension water (500 g/ha) day 12, second leaf
[23] = Seed Treatment 0.5 g/Seed 1 kg, inoculated day 12, second leaf
[24] = Seed Treatment 5 g/Seed 1 kg (500 g/ha), inoculated day 12, second leaf
[25] = Foliage Treatment group, spray 50 ppm (50 g/ha) 12 days after seeding, emergence counted 12 days after seeding
[26] = Foliage Treatment group, spray 500 ppm (500 g/ha) 12 days after seeding, emergence counted 12 days after seeding
[27] = Seed Treatment 0.5 g/Seed 1 kg, 12 days after seeding
[28] = Seed Treatment 5 g/Seed 1 kg (500 g/ha), 12 days after seeding
[29] = Foliage Spray 50 ppm suspension water (50 g/ha) day 15, first leaf
[30] = Seed Treatment 0.5 g/Seed 1 kg (50 g/ha), inoculated day 15, first leaf
[31] = Table 11 run (different day), Foliage Treatment, spray 5 ppm (5 g/ha)
[32] = Table 11 run (different day), Foliage Treatment, spray 50 ppm (50 g/ha)
[33] = Table 11 run (different day), Seed Treatment 0.05 g/Seed 1 kg (5 g/ha)
[34] = Table 11 run (different day), Seed Treatment 0.5 g/Seed 1 kg (50 g/ha)
[35] = Table 12 run (different day), Foliage Treatment, spray 50 ppm (50 g/ha)
[36] = Table 12 run (different day), Seed Treatment 0.5 g/Seed 1 kg (50 g/ha)

SMILES | Degree of Disease Occurrence (septoria leaf blotch [1]; [5]) | Disease Leaf Rate (%) (septoria leaf blotch [1]; [5]) | Degree of Disease Occurrence (septoria leaf blotch [1]; [6]) | Disease Leaf Rate (%) (septoria leaf blotch [1]; [6]) | Degree of Disease Occurrence (septoria leaf blotch [1]; [7]) | Disease Leaf Rate (%) (septoria leaf blotch [1]; [7]) | Degree of Disease Occurrence (septoria leaf blotch [1]; [8]) | Disease Leaf Rate (%) (septoria leaf blotch [1]; [8]) | Degree of Disease Occurrence (septoria leaf blotch [1]; [9]) | Disease Leaf Rate (%) (septoria leaf blotch [1]; [10]) | Degree of Disease Occurrence (septoria leaf blotch [1]; [11]) | Disease Leaf Rate (%) (septoria leaf blotch [1]; [12]) | Degree of Disease Occurrence (septoria leaf blotch [1]; [13]) | Disease Leaf Rate (%) (septoria leaf blotch [1]; [14]) | Degree of Disease Occurrence (septoria leaf blotch [1]; [15]) | Disease Leaf Rate (%) (septoria leaf blotch [1]; [16]) | Degree of Disease Occurrence (powdery mildew [2]; [17]) | Disease Leaf Rate (%) (powdery mildew [2]; [17]) | Degree of Disease Occurrence (powdery mildew [2]; [18]) | Disease Leaf Rate (%) (powdery mildew [2]; [18]) | also measured
OCc1snc(Cl)c1Cl [Compound (3)] | 29.3 | 97.0 | 37.5 | 91.7 | 22.2 | 77.8 | 8.2 | 32.8 | 62.5 | 100.0 | 77.4 | 100.0 | 40.6 | 96.9 | 40.4 | 85.7 | 63.5 | 100.0 | 56.3 | 100.0 | Degree of Disease Occurrence (powdery mildew [2]; [19]): 45.2; Disease Leaf Rate (%) (powdery mildew [2]; [19]): 100.0%; Degree of Disease Occurrence (powdery mildew [2]; [20]): 14.8; Disease Leaf Rate (%) (powdery mildew [2]; [20]): 59.4%; Degree of Disease Occurrence (septoria leaf blotch [3]; [21]): 29.3; Degree of Disease Occurrence (septoria leaf blotch [3]; [22]): 37.5; Degree of Disease Occurrence (septoria leaf blotch [3]; [23]): 22.2; Degree of Disease Occurrence (septoria leaf blotch [3]; [24]): 8.2; disease occurrence of septoria leaf blotch, seed treatment compared with spraying on foliage during a growing period (septoria leaf blotch [3]): suppressed lower; Emergence Rate (%) (wheat (variety: Apache); [25]): 97.2%; Emergence Rate (%) (wheat (variety: Apache); [26]): 97.2%; Emergence Rate (%) (wheat (variety: Apache); [27]): 97.2%; Emergence Rate (%) (wheat (variety: Apache); [28]): 86.1%; Degree of Disease Occurrence (powdery mildew [4]; [29]): 62.1; Degree of Disease Occurrence (powdery mildew [4]; [30]): 17.0; disease occurrence of powdery mildew, seed treatment compared with spraying on foliage during a growing period (powdery mildew [4]): suppressed lower
O=S1(=O)N=C(OCc2snc(Cl)c2Cl)c2ccccc21 [Compound (1), Dichlobentiazox] |  |  |  |  |  |  |  |  |  |  | 71.9 | 100.0 |  |  | 45.7 | 95.8 |  |  |  |  | Degree of Disease Occurrence (powdery mildew [2]; [31]): 95.3; Disease Leaf Rate (%) (powdery mildew [2]; [31]): 100%; Degree of Disease Occurrence (powdery mildew [2]; [32]): 89.1; Disease Leaf Rate (%) (powdery mildew [2]; [32]): 100%; Degree of Disease Occurrence (powdery mildew [2]; [33]): 56.4; Disease Leaf Rate (%) (powdery mildew [2]; [33]): 93.8%; Degree of Disease Occurrence (powdery mildew [2]; [34]): 22.7; Disease Leaf Rate (%) (powdery mildew [2]; [34]): 71.9%; Degree of Disease Occurrence (powdery mildew [2]; [35]): 21.7; Disease Leaf Rate (%) (powdery mildew [2]; [35]): 46.7%; Degree of Disease Occurrence (powdery mildew [2]; [36]): 0.0; Disease Leaf Rate (%) (powdery mildew [2]; [36]): 0.0%
O=C(O)c1snc(Cl)c1Cl [Compound (6)] | 29.5 | 88.9 | 48.5 | 100.0 | 16.1 | 58.8 | 4.2 | 16.9 | 53.3 | 100.0 | 86.2 | 95.2 | 34.7 | 84.4 | 41.3 | 95.0 | 56.3 | 100.0 | 40.6 | 87.5 | Degree of Disease Occurrence (powdery mildew [2]; [19]): 48.5; Disease Leaf Rate (%) (powdery mildew [2]; [19]): 93.8%; Degree of Disease Occurrence (powdery mildew [2]; [20]): 28.1; Disease Leaf Rate (%) (powdery mildew [2]; [20]): 87.1%; Degree of Disease Occurrence (septoria leaf blotch [3]; [21]): 29.5; Degree of Disease Occurrence (septoria leaf blotch [3]; [22]): 48.5; Degree of Disease Occurrence (septoria leaf blotch [3]; [23]): 16.1; Degree of Disease Occurrence (septoria leaf blotch [3]; [24]): 4.2; disease occurrence of septoria leaf blotch, seed treatment compared with spraying on foliage during a growing period (septoria leaf blotch [3]): suppressed lower; Emergence Rate (%) (wheat (variety: Apache); [25]): 97.2%; Emergence Rate (%) (wheat (variety: Apache); [26]): 94.4%; Emergence Rate (%) (wheat (variety: Apache); [27]): 88.9%; Emergence Rate (%) (wheat (variety: Apache); [28]): 88.9%; Degree of Disease Occurrence (powdery mildew [4]; [29]): 22.2; Degree of Disease Occurrence (powdery mildew [4]; [30]): 16.3; disease occurrence of powdery mildew, seed treatment compared with spraying on foliage during a growing period (powdery mildew [4]): suppressed lower
